Laboratory results as given in ChEMBL document CHEMBL5291721, “A preclinical secondary pharmacology resource illuminates target-adverse drug reaction associations of marketed drugs” (Nat Commun, 2023).

Experiments:
Adenosine receptor A2a = Adenosine receptor A2a (Homo sapiens, UniProt P29274)
[1] = biological target: Beta-1 adrenergic receptor (Homo sapiens, UniProt P08588); type: functional
Motilin receptor = Motilin receptor (Homo sapiens, UniProt O43193)
[2] = biological target: 5-hydroxytryptamine receptor 2A (Homo sapiens, UniProt P28223); type: functional, cell-based
[3] = biological target: Sodium-dependent serotonin transporter (Homo sapiens, UniProt P31645)
[4] = biological target: T1, Neuropeptide Y receptor type 1 (Homo sapiens, UniProt P25929)
T1 sequence (P25929 whole entry): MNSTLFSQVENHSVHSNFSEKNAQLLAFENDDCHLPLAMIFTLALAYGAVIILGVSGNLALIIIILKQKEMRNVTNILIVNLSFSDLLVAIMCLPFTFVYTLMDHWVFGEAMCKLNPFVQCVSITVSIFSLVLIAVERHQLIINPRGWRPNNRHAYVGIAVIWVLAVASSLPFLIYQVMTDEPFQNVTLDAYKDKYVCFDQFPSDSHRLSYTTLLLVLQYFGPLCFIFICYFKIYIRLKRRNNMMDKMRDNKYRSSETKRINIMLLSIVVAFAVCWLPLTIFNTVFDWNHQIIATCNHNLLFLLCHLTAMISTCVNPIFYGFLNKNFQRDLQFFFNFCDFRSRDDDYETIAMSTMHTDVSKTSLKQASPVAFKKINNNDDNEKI

Vasopressin V1a receptor = Vasopressin V1a receptor (Homo sapiens, UniProt P37288)
[5] = biological target: T2, Prostaglandin G/H synthase 1 (Rattus norvegicus, UniProt Q63921); type: functional
T2 sequence (Q63921 whole entry): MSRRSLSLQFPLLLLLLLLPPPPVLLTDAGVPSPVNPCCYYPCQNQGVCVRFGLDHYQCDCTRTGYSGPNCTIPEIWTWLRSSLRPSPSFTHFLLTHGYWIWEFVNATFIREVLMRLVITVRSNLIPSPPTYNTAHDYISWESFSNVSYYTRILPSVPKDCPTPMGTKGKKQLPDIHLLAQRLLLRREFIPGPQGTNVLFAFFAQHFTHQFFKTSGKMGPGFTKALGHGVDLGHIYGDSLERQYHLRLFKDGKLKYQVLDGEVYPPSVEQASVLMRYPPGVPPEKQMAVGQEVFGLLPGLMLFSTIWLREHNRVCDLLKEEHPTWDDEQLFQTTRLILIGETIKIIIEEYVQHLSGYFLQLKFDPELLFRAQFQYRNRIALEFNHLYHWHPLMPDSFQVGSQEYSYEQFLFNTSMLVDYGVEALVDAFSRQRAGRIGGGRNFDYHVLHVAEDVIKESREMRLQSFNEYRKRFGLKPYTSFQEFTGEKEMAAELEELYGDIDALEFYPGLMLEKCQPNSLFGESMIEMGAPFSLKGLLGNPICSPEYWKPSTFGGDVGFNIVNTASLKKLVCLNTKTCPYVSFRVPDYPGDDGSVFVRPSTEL

Histamine H1 receptor = Histamine H1 receptor (Homo sapiens, UniProt P35367)
[6] = biological target: T3, 5-hydroxytryptamine receptor 2C (Homo sapiens, UniProt P28335)
T3 sequence (P28335 whole entry): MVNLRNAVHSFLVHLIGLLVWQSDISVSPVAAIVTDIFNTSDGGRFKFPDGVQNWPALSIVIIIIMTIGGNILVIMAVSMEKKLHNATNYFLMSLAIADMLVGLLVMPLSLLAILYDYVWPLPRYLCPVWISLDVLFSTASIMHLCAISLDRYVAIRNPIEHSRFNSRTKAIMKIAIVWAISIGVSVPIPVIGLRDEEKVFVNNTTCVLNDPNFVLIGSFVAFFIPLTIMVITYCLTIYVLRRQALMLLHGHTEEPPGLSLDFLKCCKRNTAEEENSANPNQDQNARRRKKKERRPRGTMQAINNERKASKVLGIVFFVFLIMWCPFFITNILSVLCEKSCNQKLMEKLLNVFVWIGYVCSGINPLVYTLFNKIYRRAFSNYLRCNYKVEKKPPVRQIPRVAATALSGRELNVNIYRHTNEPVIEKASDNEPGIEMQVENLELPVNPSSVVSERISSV

[7] = biological target: T4, Muscarinic acetylcholine receptor M2 (Homo sapiens, UniProt P08172); type: functional, cell-based
T4 sequence (P08172 whole entry): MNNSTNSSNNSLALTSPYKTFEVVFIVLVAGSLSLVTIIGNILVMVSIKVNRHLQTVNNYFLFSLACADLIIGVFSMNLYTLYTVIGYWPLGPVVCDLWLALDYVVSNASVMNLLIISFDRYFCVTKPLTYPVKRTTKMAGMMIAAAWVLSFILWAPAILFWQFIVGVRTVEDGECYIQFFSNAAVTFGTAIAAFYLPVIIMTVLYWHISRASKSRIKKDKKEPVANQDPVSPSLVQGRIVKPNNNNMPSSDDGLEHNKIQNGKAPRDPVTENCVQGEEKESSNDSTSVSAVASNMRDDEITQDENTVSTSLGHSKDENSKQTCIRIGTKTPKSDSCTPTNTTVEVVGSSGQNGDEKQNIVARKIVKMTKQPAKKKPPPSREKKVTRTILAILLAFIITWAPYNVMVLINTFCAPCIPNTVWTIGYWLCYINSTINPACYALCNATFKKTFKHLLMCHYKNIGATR

Mu-type opioid receptor = Mu-type opioid receptor (Homo sapiens, UniProt P35372); experiment: biochemical; type: functional
[8] = biological target: Sodium-dependent noradrenaline transporter (Homo sapiens, UniProt P23975)
[9] = biological target: Neuronal acetylcholine receptor subunit alpha-4 (Homo sapiens, UniProt P43681)
[10] = biological target: 3',5'-cyclic-AMP phosphodiesterase 4D (Homo sapiens, UniProt Q08499); type: functional
[11] = biological target: Glutamate receptor ionotropic, NMDA 1 (Rattus norvegicus, UniProt P35439)
[12] = biological target: cGMP-inhibited 3',5'-cyclic phosphodiesterase 3A (Homo sapiens, UniProt Q14432); type: functional
Further: assay procedure not described here.

Chain of Sodium-dependent noradrenaline transporter (P23975 whole entry): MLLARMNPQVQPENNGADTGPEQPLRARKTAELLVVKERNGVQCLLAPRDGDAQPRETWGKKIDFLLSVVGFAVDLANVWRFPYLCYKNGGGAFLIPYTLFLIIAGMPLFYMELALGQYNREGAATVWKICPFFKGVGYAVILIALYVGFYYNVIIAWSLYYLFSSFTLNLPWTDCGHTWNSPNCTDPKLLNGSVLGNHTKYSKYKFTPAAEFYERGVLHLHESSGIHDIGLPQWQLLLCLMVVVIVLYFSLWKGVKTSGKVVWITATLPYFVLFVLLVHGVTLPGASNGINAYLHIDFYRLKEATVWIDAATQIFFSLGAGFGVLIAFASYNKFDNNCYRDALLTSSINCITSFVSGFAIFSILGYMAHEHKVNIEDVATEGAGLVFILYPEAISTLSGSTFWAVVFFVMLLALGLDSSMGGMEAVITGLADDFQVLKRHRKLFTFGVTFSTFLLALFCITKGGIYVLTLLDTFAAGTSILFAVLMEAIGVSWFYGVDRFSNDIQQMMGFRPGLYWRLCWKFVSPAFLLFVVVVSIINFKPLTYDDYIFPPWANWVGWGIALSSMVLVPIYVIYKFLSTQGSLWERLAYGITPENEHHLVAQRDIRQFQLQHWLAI
Chain of 3',5'-cyclic-AMP phosphodiesterase 4D (Q08499 whole entry): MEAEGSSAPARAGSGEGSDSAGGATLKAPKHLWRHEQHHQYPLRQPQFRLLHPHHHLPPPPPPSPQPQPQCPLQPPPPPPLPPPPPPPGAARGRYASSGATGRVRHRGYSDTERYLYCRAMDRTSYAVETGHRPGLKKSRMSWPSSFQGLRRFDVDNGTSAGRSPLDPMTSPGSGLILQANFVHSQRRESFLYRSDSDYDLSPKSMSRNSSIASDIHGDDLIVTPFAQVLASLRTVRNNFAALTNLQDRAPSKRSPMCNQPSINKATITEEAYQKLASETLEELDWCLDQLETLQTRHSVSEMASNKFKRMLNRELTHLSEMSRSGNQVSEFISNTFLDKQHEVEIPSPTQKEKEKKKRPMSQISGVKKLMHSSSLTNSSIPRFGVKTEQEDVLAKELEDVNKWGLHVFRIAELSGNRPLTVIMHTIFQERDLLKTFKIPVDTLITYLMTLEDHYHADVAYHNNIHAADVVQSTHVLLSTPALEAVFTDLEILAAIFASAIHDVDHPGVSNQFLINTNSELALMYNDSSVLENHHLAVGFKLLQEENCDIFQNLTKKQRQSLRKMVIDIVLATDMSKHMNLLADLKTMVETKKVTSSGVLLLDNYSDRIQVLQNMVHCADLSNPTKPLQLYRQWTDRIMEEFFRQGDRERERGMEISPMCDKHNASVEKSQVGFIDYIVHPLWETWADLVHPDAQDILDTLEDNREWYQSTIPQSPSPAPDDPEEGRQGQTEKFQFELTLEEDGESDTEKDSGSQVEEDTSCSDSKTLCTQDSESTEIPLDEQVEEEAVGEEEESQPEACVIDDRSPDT
Chain of Beta-1 adrenergic receptor (P08588 whole entry): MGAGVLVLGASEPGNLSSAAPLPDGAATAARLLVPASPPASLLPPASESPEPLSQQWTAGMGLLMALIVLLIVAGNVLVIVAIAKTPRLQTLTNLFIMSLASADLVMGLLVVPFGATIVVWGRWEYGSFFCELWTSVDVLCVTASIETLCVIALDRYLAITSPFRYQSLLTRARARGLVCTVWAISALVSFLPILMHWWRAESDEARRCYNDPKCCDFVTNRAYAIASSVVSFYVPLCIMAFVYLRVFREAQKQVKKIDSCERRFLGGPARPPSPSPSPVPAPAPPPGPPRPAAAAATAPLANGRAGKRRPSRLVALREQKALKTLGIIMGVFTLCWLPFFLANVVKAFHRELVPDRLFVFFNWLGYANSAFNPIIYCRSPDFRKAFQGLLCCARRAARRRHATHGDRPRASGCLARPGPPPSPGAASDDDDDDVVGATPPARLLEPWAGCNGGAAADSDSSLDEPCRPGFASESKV
Chain of Adenosine receptor A2a (P29274 whole entry): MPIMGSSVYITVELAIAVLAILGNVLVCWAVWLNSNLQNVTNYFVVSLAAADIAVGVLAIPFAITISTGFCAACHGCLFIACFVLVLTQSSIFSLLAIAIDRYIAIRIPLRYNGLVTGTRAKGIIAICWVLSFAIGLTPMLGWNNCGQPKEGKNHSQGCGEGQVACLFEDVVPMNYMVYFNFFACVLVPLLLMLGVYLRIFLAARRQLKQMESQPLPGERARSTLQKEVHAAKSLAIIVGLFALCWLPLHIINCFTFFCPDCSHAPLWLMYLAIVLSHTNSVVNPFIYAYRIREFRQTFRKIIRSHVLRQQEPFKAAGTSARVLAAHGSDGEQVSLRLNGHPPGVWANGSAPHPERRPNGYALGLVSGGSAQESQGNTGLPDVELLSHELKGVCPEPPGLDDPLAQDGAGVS
Chain of Mu-type opioid receptor (P35372 whole entry): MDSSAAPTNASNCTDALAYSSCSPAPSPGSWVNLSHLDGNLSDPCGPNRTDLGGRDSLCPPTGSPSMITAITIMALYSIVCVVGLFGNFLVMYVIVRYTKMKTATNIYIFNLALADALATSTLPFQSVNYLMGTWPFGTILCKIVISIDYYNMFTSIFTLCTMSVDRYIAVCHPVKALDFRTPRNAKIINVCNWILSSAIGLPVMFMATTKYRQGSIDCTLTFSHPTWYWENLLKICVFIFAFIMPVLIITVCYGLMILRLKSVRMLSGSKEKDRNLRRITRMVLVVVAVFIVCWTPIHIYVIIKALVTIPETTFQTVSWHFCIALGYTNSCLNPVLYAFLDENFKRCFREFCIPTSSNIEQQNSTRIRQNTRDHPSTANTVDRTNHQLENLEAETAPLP
Chain of Neuronal acetylcholine receptor subunit alpha-4 (P43681 whole entry): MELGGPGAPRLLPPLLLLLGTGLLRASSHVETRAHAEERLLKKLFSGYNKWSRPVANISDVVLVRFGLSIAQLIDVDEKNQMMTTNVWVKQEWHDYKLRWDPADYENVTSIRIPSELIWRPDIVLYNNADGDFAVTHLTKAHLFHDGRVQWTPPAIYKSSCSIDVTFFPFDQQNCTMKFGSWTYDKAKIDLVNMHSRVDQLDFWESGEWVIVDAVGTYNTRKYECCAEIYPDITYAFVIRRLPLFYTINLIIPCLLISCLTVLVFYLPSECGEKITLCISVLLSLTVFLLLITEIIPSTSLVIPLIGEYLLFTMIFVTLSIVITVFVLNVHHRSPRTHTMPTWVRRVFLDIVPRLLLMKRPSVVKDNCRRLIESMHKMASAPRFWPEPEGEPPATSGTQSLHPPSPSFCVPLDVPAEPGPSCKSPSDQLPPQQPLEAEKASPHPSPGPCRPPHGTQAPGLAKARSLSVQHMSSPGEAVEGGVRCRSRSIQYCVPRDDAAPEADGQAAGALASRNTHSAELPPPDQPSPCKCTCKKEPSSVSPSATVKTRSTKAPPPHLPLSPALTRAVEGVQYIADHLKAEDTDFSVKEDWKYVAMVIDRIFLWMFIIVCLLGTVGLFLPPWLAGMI
Chain of Vasopressin V1a receptor (P37288 whole entry): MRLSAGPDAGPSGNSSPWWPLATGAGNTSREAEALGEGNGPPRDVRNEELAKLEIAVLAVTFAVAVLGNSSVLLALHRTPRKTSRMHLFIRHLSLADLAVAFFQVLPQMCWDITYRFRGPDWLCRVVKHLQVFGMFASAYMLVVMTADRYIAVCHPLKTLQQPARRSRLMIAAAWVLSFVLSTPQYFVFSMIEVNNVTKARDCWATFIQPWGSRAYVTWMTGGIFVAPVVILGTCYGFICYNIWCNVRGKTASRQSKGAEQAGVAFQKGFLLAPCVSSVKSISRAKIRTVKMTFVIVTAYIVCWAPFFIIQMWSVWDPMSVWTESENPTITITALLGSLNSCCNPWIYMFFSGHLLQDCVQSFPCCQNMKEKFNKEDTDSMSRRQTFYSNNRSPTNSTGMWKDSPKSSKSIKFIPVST
Chain of cGMP-inhibited 3',5'-cyclic phosphodiesterase 3A (Q14432 whole entry): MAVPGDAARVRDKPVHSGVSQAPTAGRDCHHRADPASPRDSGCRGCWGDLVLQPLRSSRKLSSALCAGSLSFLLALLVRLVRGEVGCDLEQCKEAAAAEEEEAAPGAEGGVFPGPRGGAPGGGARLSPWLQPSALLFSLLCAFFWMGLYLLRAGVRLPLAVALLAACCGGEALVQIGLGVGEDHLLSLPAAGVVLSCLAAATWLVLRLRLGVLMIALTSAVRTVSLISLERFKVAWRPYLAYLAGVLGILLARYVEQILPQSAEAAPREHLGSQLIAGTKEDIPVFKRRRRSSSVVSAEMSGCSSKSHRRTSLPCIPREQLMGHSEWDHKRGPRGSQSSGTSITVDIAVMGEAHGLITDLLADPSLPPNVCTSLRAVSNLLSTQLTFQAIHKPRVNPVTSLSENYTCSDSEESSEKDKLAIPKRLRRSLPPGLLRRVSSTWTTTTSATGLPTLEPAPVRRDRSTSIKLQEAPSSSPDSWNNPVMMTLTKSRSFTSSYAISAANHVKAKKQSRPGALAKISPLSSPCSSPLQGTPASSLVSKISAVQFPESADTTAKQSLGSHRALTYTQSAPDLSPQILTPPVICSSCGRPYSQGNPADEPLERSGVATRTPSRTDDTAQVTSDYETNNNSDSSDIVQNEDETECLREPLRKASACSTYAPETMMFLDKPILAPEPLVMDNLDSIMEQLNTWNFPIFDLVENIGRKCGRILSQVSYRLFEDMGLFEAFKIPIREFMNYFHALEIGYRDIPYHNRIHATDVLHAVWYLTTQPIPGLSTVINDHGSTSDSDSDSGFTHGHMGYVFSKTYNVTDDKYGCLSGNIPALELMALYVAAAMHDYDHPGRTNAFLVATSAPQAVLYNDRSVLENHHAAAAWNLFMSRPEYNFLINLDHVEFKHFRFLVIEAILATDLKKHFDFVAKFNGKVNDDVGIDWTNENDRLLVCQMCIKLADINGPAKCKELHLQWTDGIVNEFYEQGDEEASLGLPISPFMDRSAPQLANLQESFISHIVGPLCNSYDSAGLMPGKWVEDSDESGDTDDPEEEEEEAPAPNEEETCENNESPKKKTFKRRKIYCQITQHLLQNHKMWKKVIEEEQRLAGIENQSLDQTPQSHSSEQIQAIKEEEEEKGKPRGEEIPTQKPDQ

Compound | AC50 (Adenosine receptor A2a) | AC50 [1] | AC50 (Motilin receptor) | AC50 [2] | AC50 [3] | AC50 [4] | AC50 (Vasopressin V1a receptor) | AC50 [5] | AC50 (Histamine H1 receptor) | AC50 [6] | AC50 [7] | AC50 (Mu-type opioid receptor) | AC50 [8] | AC50 [9] | AC50 [10] | AC50 [11] | AC50 [12]
Clc1ccc(CCCOCCCN2CCCCC2)cc1 [PITOLISANT] | > 30 µM | > 30 µM | > 30 µM | > 30 µM | 9.9 µM | > 30 µM | > 30 µM | > 30 µM | 11 µM | > 30 µM | > 30 µM | > 30 µM | 13 µM | > 30 µM | > 30 µM | > 30 µM | > 30 µM
COC(=O)C1=C(C)NC(C)=C(C(=O)OC(C)(C)CN(C)CCC(c2ccccc2)c2ccccc2)C1c1cccc([N+](=O)[O-])c1 (configuration not stated) [LERCANIDIPINE] | > 30 µM | > 30 µM | 12.6 µM | > 30 µM | > 30 µM | > 30 µM | > 30 µM | 18.7 µM | 6.4 µM | > 30 µM | > 30 µM | > 30 µM | > 30 µM | > 30 µM | > 30 µM | > 30 µM | 25 µM
CC(C)OC(=O)CCC/C=C\C[C@@H]1[C@@H](CC[C@@H](O)CCc2ccccc2)[C@H](O)C[C@@H]1O [LATANOPROST] | > 30 µM | > 30 µM | > 30 µM | > 30 µM | > 30 µM | > 30 µM | > 30 µM | > 30 µM | > 30 µM | > 30 µM | > 30 µM | > 30 µM | > 30 µM | > 30 µM | > 30 µM | > 30 µM | > 30 µM
O=C(O)C1=C(CSc2nnnn2CS(=O)(=O)O)CS[C@@H]2[C@H](NC(=O)[C@H](O)c3ccccc3)C(=O)N12 [CEFONICID] | > 30 µM | > 30 µM | > 30 µM | > 30 µM | 30 µM | > 30 µM | > 30 µM | > 30 µM | > 30 µM | > 30 µM | > 30 µM | > 30 µM | > 30 µM | > 30 µM | > 30 µM | > 30 µM | > 30 µM
C=CCC1(CC(C)C)C(=O)NC(=O)NC1=O [BUTALBITAL] | > 10 µM | > 10 µM | > 10 µM | > 10 µM | > 10 µM | > 10 µM | > 10 µM | > 10 µM | > 30 µM | > 30 µM | > 10 µM | > 30 µM | > 10 µM | > 10 µM | > 30 µM | > 10 µM | > 30 µM
CCOC(=O)[C@H](CCc1ccccc1)N[C@@H](C)C(=O)N1C(=O)N(C)C[C@H]1C(=O)O | > 30 µM | > 30 µM | > 30 µM | > 30 µM | > 30 µM | > 30 µM | > 30 µM | 12 µM | > 30 µM | > 30 µM | > 30 µM | > 30 µM | > 30 µM | > 30 µM | > 30 µM | > 30 µM | > 30 µM
